Laboratory results from patent US20180326080A1, “POLYMER-BASED THERAPEUTICS FOR INDUCTIVE BROWNING OF FAT” (Purdue Research Foundation, priority 2015, published 2018).

How the values were obtained:
[1] = system: cultured white adipocytes; assay: Notch inhibition and brown fat gene expression in cultured white adipocytes; type: cell-based; settings: vs DMSO
Text: (§1) Pharmacological inhibition of Notch signaling induces browning of white adipocytes during in vitro culture. Notch signaling is inhibited in cultured white adipocytes with the γ-secretase inhibitor DAPT (N—[N-(3,5-difluorophenacetyl)-1-alanyl]-S-phenylglycine t-butyl ester).

[2] = system: cultured white adipocytes; assay: Oxygen consumption rate of adipocytes treated with DAPT; type: cell-based; settings: vs adipocytes treated with DMSO
Text: as §1

[3] = system: diet induced obese (DIO) mouse model; assay: Local injection of DBZ-NPs into inguinal WAT of diet-induced obese mice; type: in vivo; settings: in solution and nontargeted NP forms, vs nontreated obese mice
Method: All procedures regarding animal maintenance and experimental use were performed according to the regulation presented by Purdue University's Animal Care and Use Committee. 10-week-old male die-induced obese (DIO) mice with the C57BL/6 background were purchased from Taconic and housed under normal condition at Purdue University. High-fat diet (Research Diets #D12492, 60% fat) was used to induce and maintain obesity in the mice. Mice with average body weight of 36 g at 14 weeks started to receive nanoparticle treatment. […]
For GTT, mice were intraperitoneally injected with 100 mg/ml D-glucose (2 g kg-1 body weight) after 16 h fasting. Blood was drawn from tails and glucose levels were measured by a glucometer (Accu-Check Active, Roche). […] Glucose concentrations were measured in the blood drawn from tails. […]
Serum levels of free fatty acids, glucose, cholesterol, and triglycerides from fasted DIO mice after treatment of nanoparticles for 5 weeks were examined by standard kits from Randox Laboratories. The insulin level in the serum was measured by ELISA according to the manufacturer's instructions (ALPCO). […]
Total RNA was extracted from cells or tissues through Trizol (Life Technologies) in accordance with the manufacture's protocol. […] The quantitative PCR was performed on the Roche Light Cycler 96 PCR System (Roche). […]

SMILES	Notch signaling (mRNA levels of Notch targets) [1]	expression of brown fat specific genes Ucp1, Cidea, Prdm16 and Ppargc1a [1]	oxygen consumption rate (OCR) [2]	body weight gain [3]
C[C@H](NC(=O)Cc1cc(F)cc(F)c1)C(=O)N[C@H](C(=O)OC(C)(C)C)c1ccccc1 [DAPT, (N—[N-(3,5-difluorophenacetyl)-1-alanyl]-S-phenylglycinet-butyl ester)]	inhibited Notch signaling	upregulated	higher	
CN(CCOc1ccc(CC2SC(=O)NC2=O)cc1)c1ccccn1 (stereo not shown) [Rosi]				no difference in body weight gain
